For 68 compounds, IC90, IC50 and inhibition results are on record in PubChem BioAssay AID504901 (Southern Research Specialized Biocontainment Screening …, 2011).

Experiment [1] relates to Mycobacterium tuberculosis H37Rv growth inhibition, no glycerol. Briefly: Confirmatory growth inhibition assay, Mycobacterium tuberculosis H37Rv, absence of glycerol (AID 504901). Particulars: for IC50: measured here: IC50 of growth inhibition.
Assay in experiment [2]: as above
Particulars: Mycobacterium tuberculosis H37Rv growth inhibition, no glycerol; at 50 µM (top of the series).

Values joined by “and” are separate entries in the source; they are usually repeats but may differ in a detail not shown here. Identical values can stand only once. Active and inactive are the calls of the source. The rule behind the calls is not given here. A value given as a limit tells only on which side of the number the result lay.

A word on the IC90: it is the concentration at which the effect reaches the 90% level. For orientation: IC50 means the midpoint of a concentration-inhibition curve. Low values mean inhibition by little substance, high ones a need for much substance. `COC(=O)C(C)Oc1ccc(Cc2ncc(C(F)(F)F)cc2Cl)cc1` (stereo not given): in experiment [1], the IC90 was 5610 nM and the IC50 is 3950 nM.

For the compound `CCCCNC(=O)CSc1nc2ccccc2c(=O)[nH]1`, in experiment [1], the IC90 was 1060 nM and the IC50 came out at 320 nM.

The term inhibition denotes the relative decrease from the control value, in per cent. Consider `Cn1c(SCC(=O)NC2CCCCC2)nc2ccccc2c1=O`, for which the inhibition in experiment [2] was -9.98% (inactive).

`CC(C)N=c1cc2n(-c3ccc(Cl)cc3)c3ccccc3nc-2cc1Nc1ccc(Cl)cc1` displayed a half-inhibitory concentration (IC50) in experiment [1] of more than 140 nM.

Consider `CN(C(=O)CSc1nc2ccccc2c(=O)[nH]1)C1CCCCC1`, for which, in experiment [2], the inhibition is -7.16% (inactive).

For `Nc1cc(=O)[nH]c(SCC(=O)NC2CCCCC2)n1`, the inhibition in experiment [2] was -6.39% (inactive).

Consider `CN[C@@H]1[C@H](O[C@H]2[C@H](O[C@H]3[C@H](O)[C@@H](O)[C@H](N=C(N)N)[C@@H](O)[C@@H]3N=C(N)N)O[C@@H](C)[C@]2(O)C=O)O[C@@H](CO)[C@H](O)[C@H]1O`, for which, in experiment [1], the IC90 is 220 nM and the IC50 is 150 nM.

Consider `Cc1cc(C)n2nc(N)c(N=Nc3ccccc3)c2n1`, for which, in experiment [1], the IC90 was 5960 nM and the half-inhibitory concentration (IC50) worked out at 4550 nM.

For the compound `Cc1cccc(-c2oc3ccc(-c4ccc5c(c4)OCO5)cc3c2C#Cc2cncn2C)c1`, in experiment [1], the IC90 is 2960 nM and the IC50 was determined as 2360 nM.

Regarding `O=C(CSc1nc2c(c(=O)[nH]1)CCCC2)NC1CCCCC1`, in experiment [1], the IC90 is 160 nM and the IC50 amounted to 90 nM.

For the compound `Cc1nc(SCC(=O)NC2CCCC2)[nH]c(=O)c1C`, in experiment [1], the IC90 is 13800 nM and the IC50 is 9690 nM.

In the case of `COc1ccc(NC(=O)CSc2nc3ccccc3c(=O)[nH]2)cc1`, in experiment [2], the inhibition was -9.6% (inactive).

On to `O=C(CSc1nccc(=O)[nH]1)NC1CCCCC1`, for which the inhibition in experiment [2] is -0.32% (inactive).

As to `O=C(CSc1nc2ccccc2c(=O)[nH]1)N1CCOCC1`, in experiment [2], the inhibition was 0.57% (inactive).

For `CCSc1nc2ccccc2c(=O)[nH]1`, the inhibition in experiment [2] is 1.1% (inactive).

On to `Cc1[nH]c(=S)[nH]c(=O)c1C`, for which the inhibition in experiment [2] was 3.12% (inactive).

As for `CCOc1ccc(-c2cc(C)[n+](CCc3ccc(OC)c(OC)c3)c(-c3ccc(OCC)cc3)c2)cc1`, in experiment [1], the IC90 was 1120 nM and the IC50 turned out to be 710 nM.

In the case of `Cc1ccc(NC(=O)COC(=O)CCc2c[nH]c3ccccc23)cc1[N+](=O)[O-]`, in experiment [1], the IC90 is 7750 nM and the IC50 is 2730 nM.

Regarding `Cc1cccc(/C=C/C(=O)c2ccc([N+](=O)[O-])o2)c1`, in experiment [1], the IC90 is 2060 nM and the IC50 stood at 1360 nM.

As for `Cc1cnc(SCC(=O)NC2CCCCC2)[nH]c1=O`, in experiment [2], the inhibition was -9.54% (inactive).

For `Cc1nc(SCC(N)=O)[nH]c(=O)c1C`, the inhibition in experiment [2] is -0.93% (inactive).

`COc1cccc(NC(=O)CSc2nc3ccccc3c(=O)[nH]2)c1`: the inhibition in experiment [2] is -14.5% (inactive).

With `CCOC(=O)CSc1nc(C)c(C)c(=O)[nH]1`, in experiment [2], the inhibition is -7.41% (inactive).

As for `CC1CCN(C(=O)C2CCN(c3nnc(-n4cccc4)s3)CC2)CC1`, in experiment [1], the 90% effect concentration (IC90) was 6400 nM and the IC50 was found to be 3290 nM.

With `O=c1[nH]c(SCc2ccccc2Cl)nc2c1CCCC2`, the inhibition in experiment [2] is -5.59% (inactive).

As for `O=C(CSc1nc2ccccc2c(=O)[nH]1)NC1CCCC1`, in experiment [1], the IC90 was 500 nM and the 50% inhibitory concentration (IC50) was found to be 330 nM.

Consider `O=C(CSc1nc2c(c(=O)[nH]1)CCC2)NC1CCCCC1`, for which, in experiment [1], the IC90 was less than 110 nM and the IC50 was less than 70 nM.

With `NC(=O)CSc1nc2ccccc2c(=O)[nH]1`, the inhibition in experiment [2] was -10.9% (inactive).

Regarding `Cc1nc(SCC(=O)NCCC(C)C)[nH]c(=O)c1C`, in experiment [1], the IC90 is 12800 nM and the IC50 amounted to 8990 nM.

As for `Cc1nc(SCC(=O)N(C)c2ccccc2)[nH]c(=O)c1C`, the inhibition in experiment [2] was -3.18% (inactive).

With `CCSc1nc(C)c(C)c(=O)[nH]1`, the inhibition in experiment [2] was -2.72% (inactive).

Consider `Cc1ccc(NC(=O)CSc2nc3ccccc3c(=O)[nH]2)cc1Cl`, for which, in experiment [2], the inhibition is -3.41% (inactive).

For the compound `O=c1[nH]c(=S)[nH]c2ccccc12`, the inhibition in experiment [2] is -9.52% (inactive).

For `Cc1cc(=O)[nH]c(SCC(=O)NC2CCCCC2)n1`, the inhibition in experiment [2] is -0.58% (inactive).

For the compound `CO[C@H]1/C=C/O[C@@]2(C)Oc3c(C)c(O)c4c(O)c(c(C=NN5CCN(C)CC5)c(O)c4c3C2=O)NC(=O)/C(C)=C\C=C\[C@H](C)[C@H](O)[C@@H](C)[C@@H](O)[C@@H](C)[C@H](OC(C)=O)[C@@H]1C`, the IC50 in experiment [1] is 10 nM.

Take `CC[N+](C)(CC)CCCCOc1ccc2c(c1)C(=O)c1cc(OCCCC[N+](C)(CC)CC)ccc1-2`: the IC50 in experiment [1] stood at 1900 nM.

Consider `Cc1cc(=O)[nH]c(=S)[nH]1`, for which, in experiment [2], the inhibition was -7.95% (inactive).

Regarding `Cc1c[nH]c(=S)[nH]c1=O`, the inhibition in experiment [2] is -2.94% (inactive).

With `Cc1cc(Br)ccc1NC(=O)c1cnc(N2CCN(c3ccccn3)CC2)c2ccccc12`, in experiment [1], the IC90 is 50000 nM and the half-maximal inhibitory concentration (IC50) was determined as 3420 nM.

With `Nc1c(C(=O)NC2CCCCC2)nsc1C(=O)OCC(=O)NC1CCCCC1`, in experiment [1], the IC90 is 6830 nM and the IC50 amounted to 4100 nM.

In the case of `Cc1ccc(C(=O)N/N=C(/CC(=O)c2cccs2)C(F)(F)F)cc1`, in experiment [1], the IC90 was 3580 nM and the IC50 was found to be 2560 nM.

`Cc1nc(SCc2ccccc2Cl)[nH]c(=O)c1C`: in experiment [2], the inhibition is -13.7% (inactive).

Take `O=C(CSc1nc2ccccc2c(=O)[nH]1)NC1CCCCC1`: in experiment [1], the IC90 was 510 nM and 80 nM.

On to `O=C(CSc1ncccn1)NC1CCCCC1`, for which the inhibition in experiment [2] is -1.46% (inactive).

Turning to `COC(=O)C(Nc1nc(SCC(=O)NC2CCCCC2)nc2ccccc12)c1ccccc1` (stereo not given), the inhibition in experiment [2] is -3.62% (inactive).

For `CCC(Sc1nc2ccccc2c(=O)[nH]1)C(=O)Nc1cccc(OC)c1` (stereo not given), the inhibition in experiment [2] was -3.07% (inactive).

For the compound `Cc1nc(SCC(=O)NC2CCCCC2)[nH]c(=O)c1C`, in experiment [1], the IC90 was 3780 nM and the IC50 is 650 nM.

For `NC[C@H]1O[C@H](O[C@H]2[C@H](O)[C@@H](O[C@H]3O[C@H](CO)[C@@H](O)[C@H](N)[C@H]3O)[C@H](N)C[C@@H]2N)[C@H](O)[C@@H](O)[C@@H]1O`, in experiment [1], the IC90 was 2470 nM and the IC50 came to 2010 nM.

As to `NC(=O)c1cnccn1`, the inhibition in experiment [2] is 1.71% (inactive).

As to `CN1CCC(NC(=O)CSc2nc3ccccc3c(=O)[nH]2)CC1`, the inhibition in experiment [2] was -11.8% (inactive).

Turning to `CC(C)CCNC(=O)CSc1nc2ccccc2c(=O)[nH]1`, in experiment [1], the IC90 is 500 nM and the IC50 was less than 140 nM.

On to `CNC(=O)CSc1nc2ccccc2c(=O)[nH]1`, for which the inhibition in experiment [2] is 11.7% (inactive).

With `COc1cccc(NC(=O)CSc2nc3c(c(=O)[nH]2)CCC3)c1`, the inhibition in experiment [2] is 4.58% (inactive).

In the case of `CCCc1cc(C(N)=S)ccn1`, in experiment [1], the IC90 was 50000 nM and the IC50 came to 8840 nM.

Take `CC(C)CCNC(=O)CSc1nc2c(c(=O)[nH]1)CCC2`: in experiment [1], the IC90 was 1720 nM and the half-maximal inhibitory concentration (IC50) amounted to 1400 nM.

Take `CCOC1OC(=O)C(Cl)=C1Nc1ccccc1C` (stereo not given): in experiment [1], the concentration for an effect of 90% (IC90) was 5870 nM and the concentration for half-maximal inhibition (IC50) was 3110 nM.

For `COC(=O)c1ccc(CNc2c(N3CCCC3)c(=O)c2=O)cc1`, the inhibition in experiment [2] is -8.74% (inactive).

`CC(C)CNC(=O)CSc1nc2ccccc2c(=O)[nH]1`: in experiment [1], the IC90 is 790 nM and the half-maximal inhibitory concentration (IC50) was 410 nM.

Consider `CC(C)NC(=O)CSc1nc2ccccc2c(=O)[nH]1`, for which, in experiment [1], the IC90 was 14600 nM and the IC50 is 9570 nM.

On to `CCC(Sc1nc2c(c(=O)[nH]1)CCC2)C(=O)Nc1cccc(OC)c1` (stereo not given), for which the inhibition in experiment [2] is 3.19% (inactive).

For `CCC(Sc1nc2ccccc2c(=O)[nH]1)C(=O)NC1CCCCC1` (stereo not given), the inhibition in experiment [2] is -7.27% (inactive).

With `Cc1[nH]c2ccccc2c1C(=O)COC(=O)c1ccc([N+](=O)[O-])s1`, in experiment [1], the IC90 was 27600 nM and the IC50 is 26400 nM.

Consider `CC1CCN(C(=O)CSc2nc3ccccc3c(=O)[nH]2)CC1`, for which the inhibition in experiment [2] is -4.55% (inactive).

In the case of `CC(Sc1nc2ccccc2c(=O)[nH]1)C(=O)NC1CCCCC1` (stereo not given), the inhibition in experiment [2] was -6.09% (inactive).

For the compound `CN(C)C(=O)CSc1nc2ccccc2c(=O)[nH]1`, the inhibition in experiment [2] is -6.71% (inactive).

Turning to `O=C(CSc1ccccn1)NC1CCCCC1`, the inhibition in experiment [2] was 3.21% (inactive).

Consider `O=C(CSc1nc2ccccc2c(=O)[nH]1)NCc1ccc(Cl)cc1`, for which, in experiment [1], the IC90 is 1470 nM and the IC50 is 1030 nM.

On to `COc1c(N2CCNC(C)C2)c(F)cc2c(=O)c(C(=O)O)cn(C3CC3)c12` (stereo not given), for which the IC50 in experiment [1] stood at 140 nM.
